Data published in US20100056596A1, “RESISTANCE-REPELLENT RETROVIRAL PROTEASE INHIBITORS” (Sequoia Pharmaceuticals, priority 2004, published 2010).
Read-outs that look alike come from different tables or passages of the source.

Legend:
HIV-1 protease Mutant 9 = HIV-1 protease Mutant 9 (Human immunodeficiency virus type 1, UniProt P04585); test: Ki against HIV-1 protease Mutant 9; assay type: biochemical
HIV-1 isolates, WT = test: In vitro drug sensitivity of HIV-1 laboratory isolates, WT; assay type: cell-based
Protocol: (§1) In Vitro Drug Sensitivity of HIV-1 Laboratory Isolates to PIs
(§2) The sensitivities of HIV-1 isolates against compounds of the invention were determined as previously described with minor modifications (Shiraska et al., Proc. Natl. Acad. Sci. USA, 92, 2398-2402 (1995)).

HIV-1 isolates, Mutant 9 = test: In vitro drug sensitivity of HIV-1 laboratory isolates, Mutant 9; assay type: cell-based
Protocol: as §1, §2

wild type HIV-1 protease = biological target: T1, wild type HIV-1 protease (Human immunodeficiency virus type 1 group M subtype B, UniProt P04585); test: Ki against wild type (WT) HIV-1 protease; assay type: biochemical
T1 construct: over 45 of the 99 amino acids of the HIV protease monomer

HIV-1 protease Mutant 8 = HIV-1 protease Mutant 8 (Human immunodeficiency virus type 1, UniProt P04585); test: Ki against HIV-1 protease Mutant 8; assay type: biochemical
HIV-1 isolates, Mutant 8 = test: In vitro drug sensitivity of HIV-1 laboratory isolates, Mutant 8; assay type: cell-based
Protocol: as §1, §2

[1] = Mutant 9, read-out: IC50 Mutant 9
[2] = Mutant 8, read-out: IC50 Mutant 8
[3] = Human immunodeficiency virus 1, HIV-1 isolate WT
[4] = Human immunodeficiency virus 1, read-out: IC50 Mutant 9
[5] = Human immunodeficiency virus 1, read-out: IC50 Mutant 8

| Compound | Ki (HIV-1 protease Mutant 9; Mutant 9) | IC50 (HIV-1 isolates, WT; WT) | IC50 (HIV-1 isolates, Mutant 9; [1]) | Ki (wild type HIV-1 protease; WT) | Ki (HIV-1 protease Mutant 8; Mutant 8) | IC50 (HIV-1 isolates, Mutant 8; [2]) | Ki (HIV-1 protease Mutant 9; HIV-1 protease Mutant 9) | IC50 (HIV-1 isolates, WT; [3]) | IC50 (HIV-1 isolates, Mutant 9; [4]) | Ki (wild type HIV-1 protease; wild type HIV-1 protease) | Ki (HIV-1 protease Mutant 8; HIV-1 protease Mutant 8) | IC50 (HIV-1 isolates, Mutant 8; [5]) | IC50 (HIV-1 isolates, WT; Human immunodeficiency virus 1) |
| --- | --- | --- | --- | --- | --- | --- | --- | --- | --- | --- | --- | --- | --- |
| CC(C)CN(C[C@@H](O)[C@H](Cc1ccccc1)NC(=O)OC1COC2OCCC12)S(=O)(=O)c1ccc2occ(CNC(=O)CSCc3ccccc3)c2c1 (stereo partly drawn) [Compound 119] | 0.95 nM | 5 nM | 170 nM | 0.12 nM | < 0.3 nM | 42 nM |  |  |  |  |  |  |  |
| CC(C)CN(C[C@@H](O)[C@H](Cc1ccccc1)NC(=O)OC1COC2OCCC12)S(=O)(=O)c1ccc2occ(CNCC(=O)OC(C)(C)C)c2c1 (stereo partly drawn) [Compound 110] | 0.32 nM | 3.4 nM | 62 nM | < 0.1 nM | < 0.3 nM | 33 nM |  |  |  |  |  |  |  |
| CC(C)CN(CC(O)C(Cc1ccccc1)NC(=O)OC1COC2OCCC12)S(=O)(=O)c1ccc2onc(CNCc3ccccc3)c2c1 (stereo not drawn) [Compound 232] |  |  |  |  |  |  | 0.11 nM | 7 nM | 80 nM | < 0.1 nM | < 0.3 nM | 55 nM |  |
| Cc1ccc(S(=O)(=O)N(C)Cc2noc3ccc(S(=O)(=O)N(CC(C)C)CC(O)C(Cc4ccccc4)NC(=O)OC4COC5OCCC45)cc23)cc1 (stereo not drawn) [Compound 211] |  |  |  |  |  |  | 1.7 nM | 2.1 nM | 300 nM | < 0.1 nM | < 0.3 nM | 51 nM |  |
| CCS(=O)(=O)N(CCOC)Cc1noc2ccc(S(=O)(=O)N(CC(C)C)CC(O)C(Cc3ccccc3)NC(=O)OC3COC4OCCC34)cc12 (stereo not drawn) [Compound 227] |  |  |  |  |  |  | 2.6 nM | 3.6 nM | 80 nM | < 0.1 nM | 0.41 nM | 27 nM |  |
| CCOC(=O)CNc1n[nH]c2ccc(S(=O)(=O)N(CC(C)C)CC(O)C(Cc3ccccc3)NC(=O)OC3COC4OCCC34)cc12 (stereo not drawn) [Compound 310] | 0.19 nM |  |  | < 0.1 nM | < 0.3 nM |  |  |  | 60 nM |  |  | 70 nM | 50 nM |
| CC(C)CN(CC(O)C(Cc1ccccc1)NC(=O)OC1COC2OCCC12)S(=O)(=O)c1ccc2onc(CNCc3ccccn3)c2c1 (stereo not drawn) [Compound 241] |  |  |  |  |  |  | 0.16 nM | 8 nM | 27 nM | 0.1 nM | < 0.3 nM | 17 nM |  |
| CC(C)CN(CC(O)C(Cc1ccccc1)NC(=O)OC1COC2OCCC12)S(=O)(=O)c1ccc2onc(CNC(=O)C(C)C)c2c1 (stereo not drawn) [Compound 220] |  |  |  |  |  |  | 0.14 nM | 7 nM | 60 nM | < 0.1 nM | < 0.3 nM | 12 nM |  |
| CC(=O)NCc1coc2ccc(S(=O)(=O)N(CC(C)C)C[C@@H](O)[C@H](Cc3ccccc3)NC(=O)OC3COC4OCCC34)cc12 (stereo partly drawn) [Compound 107] | 0.26 nM | 15 nM | 42 nM | < 0.1 nM | < 0.3 nM | 28 nM |  |  |  |  |  |  |  |
| CC(=O)OCc1noc2ccc(S(=O)(=O)N(CC(C)C)CC(O)C(Cc3ccccc3)NC(=O)OC3COC4OCCC34)cc12 (stereo not drawn) [Compound 205] |  |  |  |  |  |  | 0.23 nM | 10 nM | 68 nM | < 0.1 nM | < 0.3 nM | 23 nM |  |
| CC(C)CN(C[C@@H](O)[C@H](Cc1ccccc1)NC(=O)OC1CO[C@H]2OCC[C@@H]12)S(=O)(=O)c1ccc2c(c1)CC(CO)O2 (stereo partly drawn) | 9 nM |  |  | < 0.1 nM | 0.38 nM |  |  |  | 500 nM |  |  | 47 nM | 5.4 nM |
